Structures can show the parent of a compound that is named as a salt. Where two headings read alike, the source gives them in different places.

The target of experiment [1] is T1, F876L mutant Androgen Receptor (AR-F876L) (Homo sapiens, UniProt P10275, F877L).
T1 construct: expressed in transfected cells; host or cells: LNCaP
T1 sequence (P10275 1-920 F877L): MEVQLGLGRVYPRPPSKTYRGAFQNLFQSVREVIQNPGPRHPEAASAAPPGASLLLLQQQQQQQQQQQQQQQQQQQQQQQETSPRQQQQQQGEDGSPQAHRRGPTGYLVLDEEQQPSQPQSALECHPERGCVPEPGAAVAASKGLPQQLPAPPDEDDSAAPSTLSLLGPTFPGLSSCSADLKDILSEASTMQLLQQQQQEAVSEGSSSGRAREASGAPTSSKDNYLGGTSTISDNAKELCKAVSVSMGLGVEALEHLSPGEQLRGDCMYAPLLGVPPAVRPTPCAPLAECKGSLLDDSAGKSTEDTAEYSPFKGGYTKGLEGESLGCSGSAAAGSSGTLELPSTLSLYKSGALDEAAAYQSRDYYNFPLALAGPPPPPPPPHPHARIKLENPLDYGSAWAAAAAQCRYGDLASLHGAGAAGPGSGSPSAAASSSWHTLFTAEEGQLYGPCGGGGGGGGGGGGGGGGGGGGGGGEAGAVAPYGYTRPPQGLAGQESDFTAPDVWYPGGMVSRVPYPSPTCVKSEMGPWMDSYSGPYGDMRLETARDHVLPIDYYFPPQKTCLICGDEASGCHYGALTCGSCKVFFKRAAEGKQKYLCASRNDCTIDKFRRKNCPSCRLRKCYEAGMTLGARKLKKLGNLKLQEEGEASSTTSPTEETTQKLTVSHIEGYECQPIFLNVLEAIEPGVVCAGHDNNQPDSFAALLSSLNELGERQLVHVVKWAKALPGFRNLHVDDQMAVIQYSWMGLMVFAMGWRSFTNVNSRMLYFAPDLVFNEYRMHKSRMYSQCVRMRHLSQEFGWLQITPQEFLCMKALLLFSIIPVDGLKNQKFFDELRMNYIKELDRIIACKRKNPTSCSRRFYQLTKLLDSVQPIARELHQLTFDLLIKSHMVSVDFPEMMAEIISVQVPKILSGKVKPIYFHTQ
The experiment in a line: AR reporter assay, LNCaP-AR-F876L AG (agonist mode). The experiment is classed as cell-based. To be noted: for Emax: read-out: LNCaP-AR-F876L AG MAX % Stim. An excerpt:
LNCaP AR (cs) and LNCaP F876L luciferase cell lines were generated by transduction of each cell line (description of cell line generation Joseph J D, Lu N, Qian J, Sensintaffar J, Shao G, Brigham D, Moon M, Maneval E C, Chen I, Darimont B, Hager J H. A clinically relevant androgen receptor mutation confers resistance to second-generation antiandrogens enzalutamide and ARN-509. Cancer Discov 2013; 3:1020-1029) with an Androgen Response Element Firefly Luciferase lentiviral construct at an MOI (multiplicity of infection) of 50 following the manufacturer's instructions (Qiagen). A stable pooled-population cell line was generated using puromycin (Life Technologies) selection at 1:10,000 v/v. The protocol below was used for both cell lines and for testing of the compounds of Formula (I) of the present invention.
LNCaP cells were grown to about 80% confluence, media removed and cells rinsed in Hank's balanced salt solution prior to separation from the plate with 0.05% Trypsin EDTA. Cells were lifted and trypsin negated in complete CSS (charcoal stripped serum) culture media. CSS was maintained on cells for 24 h prior to assay, at which time 5,000 cells/[…] were seeded in Greiner 384 well White/White Tissue Culture Treated Plates and incubated for a further 1-2 hours at 37° C., 5% CO2, prior to addition of 10 μL of 4× Test Compounds (compounds described herein) or Assay Controls (all diluted in complete media containing 10% css). A further 10 μL of 4× R-1881 Agonist Challenge (antagonist assay) or Buffer (agonist assay) was then added (all diluted in complete media containing 10% css). Agonist challenge was at 400 pM for WT assay and 600 pM for F876L assay. Plates containing cells and compounds herein were incubated for a further 20-24 hours at 37° C., 5% CO2 before addition of 40 μL/well of Steady-Glo Luciferase Assay System Reagent (Promega#E2520). After 1 h, plates were read for luminescence on a BMG Pherastar.
((Sample RLU−Ave Low Control RLU[DMSO/Buffer])/(Ave High Control RLU [1 μM R-1881]—Ave Low Control RLU[DMSO/Buffer]))*100.
EC/IC50 calculations were achieved utilizing calculated RLU data and data fitting macros. Data were fit using least-squares methods to the following formula: […]
As used herein: • pIC50 is defined as −Log10(IC50 expressed in [Molar]). • pEC50 is defined as −Log10(EC50 expressed in [Molar]). • MAX % Inh is defined as the maximum % inhibition of R1881 control response observed for a compound over the tested concentration range. • MAX % Stim is defined as the maximum % stimulation (agonist response) observed for a compound over the tested concentration range. • LNCaP-AR-wt ANT refers to the reporter assay using LNCaP cells stably transfected with the Androgen Response Element Firefly Luciferase lentiviral construct and wild-type Androgen Receptor (AR-wt) in Antagonist mode. • LNCaP-AR-wt AG refers to the reporter assay using LNCaP cells stably transfected with the Androgen Response Element Firefly Luciferase lentiviral construct and wild-type Androgen Receptor (AR-wt) in Agonist mode. • LNCaP-AR-F876L ANT refers to the reporter assay using LNCaP cells stably transfected with the Androgen Response Element Firefly Luciferase lentiviral construct and F876L mutant Androgen Receptor (AR-F876L) in Antagonist mode. • LNCaP-AR-F876L AG refers to the reporter assay using LNCaP cells stably transfected with the Androgen Response Element Firefly Luciferase lentiviral construct and F876L mutant Androgen Receptor (AR-F876L) in Agonist mode.

A further experiment relates to VCaP cells. Nature of the experiment: Prostate Cancer Cell Viability Assay-VCaP. The note with it: Homo sapiens, 120 h, 10% Charcoal Stripped Serum, 5 days, CellTiter-Glo, * n = 1. The class given is cell-based. As for the experimental part: VCaP cells were counted and seeded into black 384-well plates with clear bottoms at a concentration of 125,000 cells per mL in phenol red-free DMEM containing 10% Charcoal Stripped Serum. 16 μL of the suspension was added per well and incubated for 48 h to allow the cells to adhere. After 48 hours, a 12 point serial semilog dilution of each compound was added to the cells in 16 μL at a final concentration of 100 µM to 0.0003 μM. The compounds of Formula (I) were also run in antagonist mode using 30 pM R1881 in which 8 μL of the compound was added to the cells followed by 8 μL of R1881. After 5 days of incubation at 37° C., 16 μL Of CellTiter-Glo (Promega) was added to the cells and the relative luminescence units (RLUs) of each well determined using the Envision. The percent stimulation and % inhibition were determined for each sample and plotted using GraphPad Prism.

For `N#Cc1ccc(N2C(=O)C3(CCC3)N(c3ccc(OC4CCNCC4)nc3)C2=S)cc1Cl` [Compound 23, 2-Chloro-4-(8-oxo-5-(6-(piperidin-4-yloxy)pyridin-3-yl)-6-thioxo-5,7-diazaspiro[3.4]octan-7-yl)benzonitrile hydrochloride], in experiment [1], the EC50 is more than 15.1 µM and the Emax amounted to 0.3%. For the same compound, the half-inhibitory concentration (IC50) in the experiment with VCaP cells worked out at 0.54 µM.

On to `CC1(C)C(=O)N(c2ccc(C#N)c(Cl)c2)C(=S)N1c1ccc(OC2CCNCC2)nc1` [Compound 9, 2-Chloro-4-(4,4-dimethyl-5-oxo-3-(6-(piperidin-4-yloxy)pyridin-3-yl)-2-thioxoimidazolidin-1-yl)benzonitrile hydrochloride], for which, in experiment [1], the EC50 is more than 15.1 µM and the Emax was found to be 0%. In addition, inhibition in the experiment on VCaP cells was half-maximal at 1.68 µM (IC50).

`CN1CCC(Oc2ncc(N3C(=S)N(c4ccc(C#N)c(C(F)(F)F)c4)C(=O)C34CCC4)cn2)CC1` [Compound 16, 4-(5-(2-((1-Methylpiperidin-4-yl)oxy)pyrimidin-5-yl)-8-oxo-6-thioxo-5,7-diazaspiro[3.4]octan-7-yl)-2-(trifluoromethyl)benzonitrile]: in experiment [1], the EC50 is more than 15.1 µM and the Emax came to 0.1%. The compound also gave an IC50 in the experiment on VCaP cells of 5.29 µM.

Take `CN1CCC(Oc2ccc(N3C(=S)N(c4ccc(C#N)c(Cl)c4)C(=O)C3(C)C)cn2)CC1` [Compound 10, 2-Chloro-4-(4,4-dimethyl-3-(6-((1-methylpiperidin-4-yl)oxy)pyridin-3-yl)-5-oxo-2-thioxoimidazolidin-1-yl)benzonitrile hydrochloride]: in experiment [1], the EC50 was more than 15.1 µM and the Emax was 0.1%. For the same compound, the IC50 with VCaP cells was 5.54 µM.

For the compound `CN1CCC(Oc2ccc(N3C(=S)N(c4ccc(C#N)c(C(F)(F)F)c4)C(=O)C34CCC4)cc2)CC1` [Compound 12, 4-(5-(4-((1-Methylpiperidin-4-yl)oxy)phenyl)-8-oxo-6-thioxo-5,7-diazaspiro[3.4]octan-7-yl)-2-(trifluoromethyl)benzonitrile], in experiment [1], the EC50 was more than 15.1 µM and the Emax is 0.2%. Besides, in the experiment with VCaP cells, the IC50 is 21 µM.

Take `CN1CCC(Oc2ccc(N3C(=S)N(c4ccc(C#N)c(Cl)c4)C(=O)C3(C)C)cc2)CC1` [Compound 8, 2-Chloro-4-(4,4-dimethyl-3-(4-((1-methylpiperidin-4-yl)oxy)phenyl)-5-oxo-2-thioxoimidazolidin-1-yl)benzonitrile hydrochloride]: in experiment [1], the EC50 was more than 15.1 µM and the Emax was found to be 0.1%. The same compound had an IC50 in the experiment with VCaP cells of 3.48 µM.

Turning to `Cc1cc(N2C(=O)C3(CCC3)N(c3ccc(OC4CCN(C)CC4)cc3)C2=S)ccc1C#N` [Compound 17, 2-Methyl-4-(5-(4-((1-methylpiperidin-4-yl)oxy)phenyl)-8-oxo-6-thioxo-5,7-diazaspiro[3.4]octan-7-yl)benzonitrile], the EC50 in experiment [1] (agonist mode (buffer, no R-1881), -Log10(EC50 in Molar), read-out: LNCaP-AR-F876L AG pEC50 (converted)) is more than 15.1 µM. Also, the Emax in experiment [1] came to 0.2%. In the experiment on VCaP cells, this compound registered an IC50 of 3.42 µM.

As to `CN1CCC(Oc2ccc(N3C(=S)N(c4ccc(C#N)c(Cl)c4)C(=O)C34CCC4)cc2)CC1` [Compound 22, 2-Chloro-4-(5-(4-((1-methylpiperidin-4-yl)oxy)phenyl)-8-oxo-6-thioxo-5,7-diazaspiro[3.4]octan-7-yl)benzonitrile], in experiment [1], the EC50 was more than 15.1 µM and the Emax turned out to be 0%. Besides, in the experiment with VCaP cells, the IC50 is 0.58 µM.

`CN1CCC(Oc2ccc(N3C(=S)N(c4ccc(C#N)c(C(F)(F)F)c4)C(=O)C3(C)C)cn2)CC1` [Compound 4, 4-(4,4-Dimethyl-3-(6-((1-methylpiperidin-4-yl)oxy)pyridin-3-yl)-5-oxo-2-thioxoimidazolidin-1-yl)-2-(trifluoromethyl)benzonitrile hydrochloride]: in experiment [1], the EC50 was more than 15.1 µM and the Emax was determined as 0.1%. The IC50 with VCaP cells stood at 1.66 µM.

In the case of `N#Cc1ccc(N2C(=O)C3(CCC3)N(c3ccc(OC4CCNCC4)cc3)C2=S)cc1Cl` [Compound 21, 2-Chloro-4-(8-oxo-5-(4-(piperidin-4-yloxy)phenyl)-6-thioxo-5,7-diazaspiro[3.4]octan-7-yl)benzonitrile], in experiment [1], the EC50 is more than 15.1 µM and the Emax came to 0.2%. Moreover, in the experiment on VCaP cells, the IC50 amounted to 1.25 µM.

For `N#Cc1ccc(N2C(=O)C3(CCC3)N(c3cnc(OC4CCNCC4)nc3)C2=S)cc1C(F)(F)F` [Compound 15, 4-(8-Oxo-5-(2-(piperidin-4-yloxy)pyrimidin-5-yl)-6-thioxo-5,7-diazaspiro[3.4]octan-7-yl)-2-(trifluoromethyl)benzonitrile], in experiment [1], the EC50 was more than 15.1 µM and the Emax is -0.1%.

On to `CN1CCC(Oc2ccc(N3C(=S)N(c4ccc(C#N)c(Cl)c4)C(=O)C34CCC4)cn2)CC1` [Compound 24, 2-Chloro-4-(5-(6-((1-methylpiperidin-4-yl)oxy)pyridin-3-yl)-8-oxo-6-thioxo-5,7-diazaspiro[3.4]octan-7-yl)benzonitrile hydrochloride], for which, in experiment [1], the EC50 is more than 15.1 µM and the Emax turned out to be 0.1%.

As to `CN1CCC(Oc2ccc(N3C(=S)N(c4ccc(C#N)c(C(F)(F)F)c4)C(=O)C3(C)C)cc2)CC1` [Compound 2, 4-(4,4-Dimethyl-3-(4-((1-methylpiperidin-4-yl)oxy)phenyl)-5-oxo-2-thioxoimidazolidin-1-yl)-2-(trifluoromethyl)benzonitrile hydrochloride], in experiment [1], the EC50 was more than 15.1 µM and the Emax was determined as 0.1%.
